Results published in patent US7495027B2, “3-aryl-4-hydroxyfuranone compounds and the human and animal health use thereof” (Wyeth, priority 2003, dated 2009).
≈ marks a conversion by molar mass, not a printed value. Where two headings read alike, the source gives them in different places.

What was measured:
[1] = target: E. coli Uridine-diphosphate-N-acetylmuramoyl-L-alanine: D-glutamate liease, MurD (Escherichia coli, UniProt P14900); experiment: biochemical; conditions: (E) E. coli enzyme
Method: (§1) S. aureus and E. coli Uridine-diphosphate-N-acetylmuramoyl-L-alanine: D-glutamate liease, MurD
The buffer is prepared from aqueous reagents with the following final concentrations: 83 mM Tris/HCl (pH 8.0), 50 mM MgCl2, and 2 mM ATP.
(§2) Preparation of Enzyme Solution:
(§3) Preparation of Test Compound Solutions:
(§4) All test solutions are prepared in DMSO as 10 mg/mL, then diluted with 50 mM Tris/HCl (pH 8.5) to 100 μg/mL.
(§5) Preparation of Stop Solution:
(§6) In this evaluation, the inhibitory activity of a test compound against MurD, the enzyme which catalyzes the fourth step of bacterial cell wall biosynthesis is determined.

[2] = target: E. coli Uridine-diphosphate-N-acetvimuramoyl: L-alanine lipase, MurC (Escherichia coli, UniProt P17952); experiment: Inhibitory activity against MurC (E. coli); assay type: biochemical; conditions: (E) E. coli enzyme; for IC50: read-out: MurC IC50 (converted)
Sequence of E. coli Uridine-diphosphate-N-acetvimuramoyl: L-alanine lipase, MurC (P17952 whole entry): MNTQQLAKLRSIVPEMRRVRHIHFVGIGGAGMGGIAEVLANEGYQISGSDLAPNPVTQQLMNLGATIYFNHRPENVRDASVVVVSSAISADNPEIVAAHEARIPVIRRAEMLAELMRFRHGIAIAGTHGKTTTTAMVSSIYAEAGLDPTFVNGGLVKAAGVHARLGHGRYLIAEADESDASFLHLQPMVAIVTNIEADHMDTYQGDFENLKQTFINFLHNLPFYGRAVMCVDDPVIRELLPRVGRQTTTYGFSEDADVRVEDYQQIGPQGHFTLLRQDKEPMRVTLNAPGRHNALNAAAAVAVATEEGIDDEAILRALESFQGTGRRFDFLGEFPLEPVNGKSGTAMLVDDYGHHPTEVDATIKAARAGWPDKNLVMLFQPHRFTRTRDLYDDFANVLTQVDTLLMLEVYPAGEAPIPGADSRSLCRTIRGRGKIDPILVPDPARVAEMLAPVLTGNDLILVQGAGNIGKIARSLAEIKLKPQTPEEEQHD
Method: S. aureus and E. coli Uridine-diphosphate-N-acetvimuramoyl: L-alanine lipase, MurC
The buffer is prepared from aqueous reagents with the following final concentrations: 83 mM Tris/HCl (pH 8.0), 50 mM MgC12, and 2 mM ATP.
as §2
A 1 mg/mL stock solution of MurC is prepared in a buffer consisting of 20 mM Tris/HCl (pH 8.5) with 2.5 μM BME. The stock solution is further diluted with the buffer to give a final enzyme concentration of 100 μg/mL for the E. coli stock solution and 70 μg/mL for the S. aureus stock solution.
as §3, §4, §5
The stop solution is prepared by stirring 1 part 4.2% ammonium molydbate in 4N HCl with 2 parts 0.045% malachite green for 30 min.
In this evaluation, the inhibitory activity of a test compound against MurC, the enzyme which catalyzes the third step of bacterial cell wall bioxynthesis is determined. Experiments are performed by adding 2.5 μl buffer, 2.5 μl 0.5M NH4SO2, 5 μl 2 μM L-Ala, 5 μl enzyme solution and 6.5 μl test compound solution to each well in a 96-well microplate. After a pre-incubation period of 10 mins. at 23° C., 3.75 μl of a 0.75 μM solution of UDP-MurNac is added to each well. Following an incubation period of 10 mins. at 37° C., 210 μl stop solution and 50 μl of a 34% w/v sodium citrate solution are added and color is allowed to develop for 10 mins. at 23° C. (Lanzetta et al., Analytical Biochemistry, 1979, 95) Optical density readings are taken at 660 nm using a Molecular Devices Spectra Max 250 with Soft Max software. Controls are performed using the same procedure and omitting the addition of UDP-MurNac.
Using these values the IC50 is determined by linear regression analysis.

[3] = tested on: staphylococci; experiment: Minimum inhibitory concentration, microdilution broth method, staphylococci; assay type: cell-based; conditions: Staphylococcus aureus, Mueller-Hinton broth, 18-22 hours at 35° C.
Method: (§7) Evaluation of the Minimum Inhibitory Concentration of Test Compounds Against A Variety of Bacterial Strains
(§8) In this evaluation the minimal inhibitory concentration (MIC) of test compounds against Gram positive and Gram negative bacteria is performed using the microdilution broth method as recommended by the National Committee for Clinical Laboratory Standards (Approved Standards M7-A5 2000). Mueller-Hinton broth is used for the enterobacteriaceae, staphylococci and enterococci. Streptococci are also tested in Mueller-Hinton broth supplemented with 5% horse blood (LHB). Test organisms include recent clinical isolates that are resistant to methicillin, penicillin and/or vancomycin. […].

[4] = target: T1, S. aureus Uridine-diphosphate-N-acetylmuramoyl-L-alanine: D-glutamate liease, MurD (Staphylococcus aureus, UniProt Q2FZ92); experiment: biochemical; conditions: (S) S. aureus enzyme
T1 sequence (Q2FZ92 1-449): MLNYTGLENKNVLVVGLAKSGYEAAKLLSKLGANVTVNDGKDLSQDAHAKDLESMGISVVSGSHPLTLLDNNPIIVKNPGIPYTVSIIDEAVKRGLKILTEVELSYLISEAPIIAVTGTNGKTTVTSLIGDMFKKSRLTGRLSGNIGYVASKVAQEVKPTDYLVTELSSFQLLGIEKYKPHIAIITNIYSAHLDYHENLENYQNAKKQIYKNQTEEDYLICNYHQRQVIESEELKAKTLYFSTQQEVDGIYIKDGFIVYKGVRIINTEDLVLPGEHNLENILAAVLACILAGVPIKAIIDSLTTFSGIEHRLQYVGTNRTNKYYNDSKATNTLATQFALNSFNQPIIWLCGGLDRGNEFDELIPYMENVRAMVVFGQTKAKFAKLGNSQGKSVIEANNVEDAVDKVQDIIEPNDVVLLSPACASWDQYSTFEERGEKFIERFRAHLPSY
Method: as §1, §2, §3, §4, §5, §6

[5] = tested on: enterococci; experiment: Minimum inhibitory concentration, microdilution broth method, enterococci; assay type: cell-based; conditions: Enterococcus faecalis, Mueller-Hinton broth, 18-22 hours at 35° C.
Method: as §7, §8

[6] = tested on: Streptococci; experiment: Minimum inhibitory concentration, microdilution broth method, streptococci; assay type: cell-based; conditions: S. pneumo GC 1894; Mueller-Hinton broth with 5% horse blood, 18-22 hours at 35° C.
Method: as §7, §8

[7] = target: E. coli Enopyruvyl-UPD-N-acetylglucosamine reductase, Mur B (Escherichia coli, UniProt P08373); experiment: biochemical; conditions: (E) E. coli enzyme; for IC50: read-out: MurB IC50 (converted)
Sequence of E. coli Enopyruvyl-UPD-N-acetylglucosamine reductase, Mur B (P08373 whole entry): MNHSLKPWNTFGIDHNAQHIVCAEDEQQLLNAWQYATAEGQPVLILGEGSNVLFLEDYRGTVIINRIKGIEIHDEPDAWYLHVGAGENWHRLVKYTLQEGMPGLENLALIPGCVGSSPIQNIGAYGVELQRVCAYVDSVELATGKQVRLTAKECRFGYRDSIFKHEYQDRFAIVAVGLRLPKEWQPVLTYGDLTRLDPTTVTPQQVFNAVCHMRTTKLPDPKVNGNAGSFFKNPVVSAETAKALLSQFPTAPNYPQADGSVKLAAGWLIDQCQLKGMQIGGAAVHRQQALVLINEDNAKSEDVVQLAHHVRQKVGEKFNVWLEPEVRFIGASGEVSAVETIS
Method: S. aureus and E. coli Enopyruvyl-UPD-N-acetylglucosamine reductase, Mur B
Preparation of Tris/BME buffer:
Dilute 17.5 uL of aqueous 5 mM BME (2-mercaptoethanol) to 50 mL with 50 mM Tris/HCl (pH 8.0).
as §2
Dilute aqueous MurB stock solution (0.94 mg/mL) with 200 parts 50 mM Tris/2-BME buffer.
Synthesis of Substrate for MurB (MurA Product EP-UDP-GluNAc):
A mixture of 13 mg UDP-N-acetylglucosamine and 5.5 mg phosphoenolpyruvate are dissolved in 10 mL Tris/BME buffer forming 2 mM concentrations of each reagent in solution.
Preparation of Assay Buffer:
The assay buffer is prepared in water from reagents with the following final concentrations: 100 mM Tris/HCl (pH 8.0), 200 μM NADPH, 100 μM MurB substrate, 10 μM 2-mercaptoethanol, and 10 μM KCl.
Experiments are performed by adding 20 μL of a solution of test compound in a mixture of dimethylsulfoxide and water and 30 μL of enzyme solution to a well. After a pre-incubation period of 20 mins. at 23° C., 50 μL of Tris/BME buffer and 100 μL of assay buffer are added. […] Controls are performed using the same procedure and employing 20 μL of a blank dimethylsulfonide and solvent mixture in place of the test compound solution.
Using these values, the IC50 for each test compound is determined by linear regression analysis.

[8] = target: E. coli UDP-N-acetylglucosamine enolpyruvoyl transferase, MurA (Escherichia coli, UniProt P0A749); experiment: biochemical; conditions: (E) E. coli enzyme
Sequence of E. coli UDP-N-acetylglucosamine enolpyruvoyl transferase, MurA (P0A749 whole entry): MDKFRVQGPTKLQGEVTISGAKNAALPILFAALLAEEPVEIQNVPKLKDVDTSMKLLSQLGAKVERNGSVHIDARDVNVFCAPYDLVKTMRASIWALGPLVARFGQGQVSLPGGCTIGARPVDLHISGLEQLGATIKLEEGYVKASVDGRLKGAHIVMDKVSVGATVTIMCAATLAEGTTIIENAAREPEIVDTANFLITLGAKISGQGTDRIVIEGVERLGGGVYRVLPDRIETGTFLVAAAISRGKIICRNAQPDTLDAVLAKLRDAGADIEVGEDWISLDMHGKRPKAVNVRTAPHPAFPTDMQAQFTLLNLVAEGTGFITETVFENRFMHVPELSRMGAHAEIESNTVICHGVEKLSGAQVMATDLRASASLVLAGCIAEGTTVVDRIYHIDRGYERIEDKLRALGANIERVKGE
Method: Evaluation of the Inhibitory Activity of Test Compounds Against Enzymes which Catalyze Bacterial Cell Wall Biosynthesis
S. aureus and E. coli UDP-N-acetylglucosamine enolpyruvoyl transferase, MurA
as §2
The enzyme solution is prepared by admixing the following: 50 mM Tris/HCl pH 8.0, […] 1 M Tris, 5 mM DTT, […] 1 M DTT, 20% Glycerol 4 ml 50% Glycerol, add water to 10 ml.
as §5
A procedure similar to that described by C. […] Experiments are performed by adding a solution of test compound (in a mixture of dimethylsulfoxide and water) and an enzyme solution to a well. After a pre-incubation period of 10 mintues at 37° C., Tris/BME buffer and assay buffer are added. A start point optical density (OD0) reading is taken at 340 nm immediately following the addition of assay buffer. After incubation for 1 hr at 37° C., the stop solution is added and the color is allowed to develop for 30 minutes.

[9] = S. aureus GC 1131, read-out: MIC S. aureus GC 1131
[10] = S. aureus GC 4543, read-out: MIC S. aureus GC 4543
[11] = E. faecalis GC 2242, read-out: MIC E. faecalis GC 2242
[12] = E. faecalis GC 4555, read-out: MIC E. faecalis GC 4555

Sequence of E. coli Uridine-diphosphate-N-acetylmuramoyl-L-alanine: D-glutamate liease, MurD (P14900 whole entry): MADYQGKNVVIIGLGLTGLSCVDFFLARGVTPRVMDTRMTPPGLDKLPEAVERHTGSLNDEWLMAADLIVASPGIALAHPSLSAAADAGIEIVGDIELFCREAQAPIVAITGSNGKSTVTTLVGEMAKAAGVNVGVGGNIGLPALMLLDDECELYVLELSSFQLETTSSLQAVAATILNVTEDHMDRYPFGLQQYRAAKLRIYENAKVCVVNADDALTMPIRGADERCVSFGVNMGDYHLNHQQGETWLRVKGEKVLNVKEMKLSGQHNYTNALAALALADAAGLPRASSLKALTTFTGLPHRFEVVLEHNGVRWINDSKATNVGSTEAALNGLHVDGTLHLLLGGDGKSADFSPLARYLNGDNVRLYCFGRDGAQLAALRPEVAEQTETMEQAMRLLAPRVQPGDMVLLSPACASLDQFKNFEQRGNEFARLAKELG

Structure (SMILES)	IC50 [1] [µM]	IC50 [2] [µM]	MIC [3, 9] [µg/mL]	MIC [3, 10] [µg/mL]	IC50 [4] [µM]	MIC [5, 11] [µg/mL]	MIC [5, 12] [µg/mL]	MIC [6] [µg/mL]	IC50 [7] [µM]	IC50 [8] [µM]	MurD IC50 [1]	MurC IC50 [2]	MurB IC50 [7]	MurA IC50 [8]
Cc1ccc(C2=C(O)/C(=C/c3ccc(-c4ccc(C)cc4)cc3)OC2=O)cc1 [Example 57]	46.1	54.3	32 (≈ 86.9 µM)	4 (≈ 10.9 µM)	51.6	2 (≈ 5.43 µM)	8 (≈ 21.7 µM)	< 0.125	16.3	> 67.9				
CCOc1ccc(-c2ccc(C3=C(O)/C(=C/c4ccc(Cl)c(C(F)(F)F)c4)OC3=O)cc2)cc1 [Example 124]	> 51.3	> 51.3	32 (≈ 65.7 µM)	32 (≈ 65.7 µM)		16 (≈ 32.9 µM)	32 (≈ 65.7 µM)	1 (≈ 2.05 µM)	24.6	28.8				
O=C1O/C(=C\c2cc(C(F)(F)F)ccc2Cl)C(O)=C1c1ccc(-c2ccccc2)cc1 [Example 125]	45.2	2.26	2 (≈ 4.52 µM)	2 (≈ 4.52 µM)		4 (≈ 9.03 µM)	8 (≈ 18.1 µM)	0.5 (≈ 1.13 µM)	11.3	9.03				
O=C1O/C(=C\c2cc(C(F)(F)F)ccc2Cl)C(O)=C1c1ccc(-c2ccccc2)c(F)c1 [Example 126]			1 (≈ 2.17 µM)	1 (≈ 2.17 µM)		1 (≈ 2.17 µM)	4 (≈ 8.68 µM)	0.25 (≈ 0.543 µM)			9 (E) μg/mL	5 (E) μg/mL	1 (E) μg/mL	3 (E) μg/mL
CCCc1ccc(-c2ccc(C3=C(O)/C(=C/c4cc(C(F)(F)F)ccc4Cl)OC3=O)cc2)cc1 [Example 127]	> 51.6	> 51.6	4 (≈ 8.25 µM)	2 (≈ 4.12 µM)		2 (≈ 4.12 µM)	4 (≈ 8.25 µM)	0.25 (≈ 0.516 µM)	12.4	8.25				
CC(C)(C)c1ccc(-c2ccc(C3=C(O)/C(=C/c4cc(C(F)(F)F)ccc4Cl)OC3=O)cc2)cc1 [Example 128]	> 50.1	48.1	8 (≈ 16 µM)	4 (≈ 8.02 µM)		2 (≈ 4.01 µM)	8 (≈ 16 µM)	0.25 (≈ 0.501 µM)	10	8.02				
CCOc1ccc(-c2ccc(C3=C(O)/C(=C/c4cc(C(F)(F)F)ccc4Cl)OC3=O)cc2)cc1 [Example 129]	14.4	14.4	2 (≈ 4.11 µM)	2 (≈ 4.11 µM)		2 (≈ 4.11 µM)	4 (≈ 8.22 µM)	0.25 (≈ 0.513 µM)	4.11	4.11				
CCCc1ccc(-c2ccc(C3=C(O)/C(=C/c4cccc(C(F)(F)F)c4)OC3=O)cc2)cc1 [Example 131]	20	40	32 (≈ 71 µM)	16 (≈ 35.5 µM)		4 (≈ 8.88 µM)	8 (≈ 17.8 µM)	0.25 (≈ 0.555 µM)	4.44	8.88				
CC(C)(C)c1ccc(-c2ccc(C3=C(O)/C(=C/c4cccc(C(F)(F)F)c4)OC3=O)cc2)cc1 [Example 132]	17.2	51.7	16 (≈ 34.4 µM)	16 (≈ 34.4 µM)		4 (≈ 8.61 µM)	8 (≈ 17.2 µM)	0.25 (≈ 0.538 µM)	6.46	6.46				
CCOc1ccc(-c2ccc(C3=C(O)/C(=C/c4cccc(C(F)(F)F)c4)OC3=O)cc2)cc1 [Example 133]	48.6	48.6	32 (≈ 70.7 µM)	32 (≈ 70.7 µM)		8 (≈ 17.7 µM)	16 (≈ 35.4 µM)	0.5 (≈ 1.11 µM)	26.5	44.2				
